Measured values: the kinase profiling compilation of Christmann-Franck et al. (2016)

Columns and labels:
Experiment in all cases: radiometric filter-binding kinase assay, Kinase HotSpot
Details in all cases: compound 0.5 µM; ATP 10 µM
WNK2 (human) = WNK2 (human) (UniProt Q9Y3S1)
MATK (human) = MATK (human) (UniProt P42679)
ACVRL1 (human) = ACVRL1 (human) (UniProt P37023)
PRKCI (human) = PRKCI (human) (UniProt P41743)
MUSK (human) = MUSK (human) (UniProt O15146)
MERTK (human) = MERTK (human) (UniProt Q12866)
RPS6KB2 (human) = RPS6KB2 (human) (UniProt Q9UBS0)
AURKB (human) = AURKB (human) (UniProt Q96GD4)
PNCK (human) = PNCK (human) (UniProt Q6P2M8)
EPHA7 (human) = EPHA7 (human) (UniProt Q15375)
PAK1 (human) = PAK1 (human) (UniProt Q13153)
TNK2 (human) = TNK2 (human) (UniProt Q07912)
PAK4 (human) = PAK4 (human) (UniProt O96013)
CDK2 CCNA2 (human) = CDK2 CCNA2 (human) (UniProt P24941+P20248)
Sequence of CDK2 CCNA2 (human) (P20248 whole entry, looked up, other chains not shown): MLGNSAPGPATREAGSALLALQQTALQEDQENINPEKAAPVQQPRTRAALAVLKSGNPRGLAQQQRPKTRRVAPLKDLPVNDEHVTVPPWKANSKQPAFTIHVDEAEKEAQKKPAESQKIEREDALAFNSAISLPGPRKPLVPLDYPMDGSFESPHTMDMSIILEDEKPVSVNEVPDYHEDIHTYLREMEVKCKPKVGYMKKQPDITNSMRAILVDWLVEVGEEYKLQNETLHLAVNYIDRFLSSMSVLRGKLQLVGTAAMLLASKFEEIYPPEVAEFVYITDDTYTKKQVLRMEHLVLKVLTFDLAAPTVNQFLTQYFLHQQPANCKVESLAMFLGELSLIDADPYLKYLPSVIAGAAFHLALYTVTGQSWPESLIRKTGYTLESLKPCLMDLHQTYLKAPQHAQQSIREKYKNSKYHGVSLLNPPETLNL

EPHB2 (human) = EPHB2 (human) (UniProt P29323)
PRKX (human) = PRKX (human) (UniProt P51817)
CDK9 CCNT1 (human) = CDK9 CCNT1 (human) (UniProt P50750+O60563)
Sequence of CDK9 CCNT1 (human) (O60563 whole entry, looked up): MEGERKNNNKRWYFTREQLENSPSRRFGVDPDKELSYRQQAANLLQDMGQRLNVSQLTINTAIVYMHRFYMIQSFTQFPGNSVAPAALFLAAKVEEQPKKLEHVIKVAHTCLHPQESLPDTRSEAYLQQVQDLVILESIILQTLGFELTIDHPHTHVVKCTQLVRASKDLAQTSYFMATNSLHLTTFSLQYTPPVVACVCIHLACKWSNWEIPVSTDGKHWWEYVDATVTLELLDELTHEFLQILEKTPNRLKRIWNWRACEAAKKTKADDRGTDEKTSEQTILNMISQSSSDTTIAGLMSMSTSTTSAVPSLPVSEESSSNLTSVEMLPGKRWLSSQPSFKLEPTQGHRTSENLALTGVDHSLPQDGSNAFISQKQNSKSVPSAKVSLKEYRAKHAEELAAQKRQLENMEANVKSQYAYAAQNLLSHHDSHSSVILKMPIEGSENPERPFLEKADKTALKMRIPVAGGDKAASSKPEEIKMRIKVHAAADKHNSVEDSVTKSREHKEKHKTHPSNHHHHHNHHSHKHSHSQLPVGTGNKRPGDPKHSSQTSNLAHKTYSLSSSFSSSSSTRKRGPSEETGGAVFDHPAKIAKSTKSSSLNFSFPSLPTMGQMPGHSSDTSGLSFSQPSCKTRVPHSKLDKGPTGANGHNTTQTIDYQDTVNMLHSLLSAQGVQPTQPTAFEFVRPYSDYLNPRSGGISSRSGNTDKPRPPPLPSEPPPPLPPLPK
Sequence of CDK9 CCNT1 (human) (P50750 whole entry, looked up): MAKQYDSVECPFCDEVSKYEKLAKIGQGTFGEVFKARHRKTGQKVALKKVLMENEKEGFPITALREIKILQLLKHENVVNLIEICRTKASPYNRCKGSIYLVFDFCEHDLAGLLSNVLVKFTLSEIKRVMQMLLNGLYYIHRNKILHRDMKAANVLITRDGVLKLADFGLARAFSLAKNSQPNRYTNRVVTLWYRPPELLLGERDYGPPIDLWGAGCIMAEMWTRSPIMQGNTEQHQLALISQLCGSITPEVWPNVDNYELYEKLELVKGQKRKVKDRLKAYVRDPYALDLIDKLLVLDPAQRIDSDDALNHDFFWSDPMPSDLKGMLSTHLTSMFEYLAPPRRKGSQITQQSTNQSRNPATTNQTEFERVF

TAOK3 (human) = TAOK3 (human) (UniProt Q9H2K8)
LIMK1 (human) = LIMK1 (human) (UniProt P53667)
CSNK1G1 (human) = CSNK1G1 (human) (UniProt Q9HCP0)
Sequence of CSNK1G1 (human) (Q9HCP0 whole entry, looked up): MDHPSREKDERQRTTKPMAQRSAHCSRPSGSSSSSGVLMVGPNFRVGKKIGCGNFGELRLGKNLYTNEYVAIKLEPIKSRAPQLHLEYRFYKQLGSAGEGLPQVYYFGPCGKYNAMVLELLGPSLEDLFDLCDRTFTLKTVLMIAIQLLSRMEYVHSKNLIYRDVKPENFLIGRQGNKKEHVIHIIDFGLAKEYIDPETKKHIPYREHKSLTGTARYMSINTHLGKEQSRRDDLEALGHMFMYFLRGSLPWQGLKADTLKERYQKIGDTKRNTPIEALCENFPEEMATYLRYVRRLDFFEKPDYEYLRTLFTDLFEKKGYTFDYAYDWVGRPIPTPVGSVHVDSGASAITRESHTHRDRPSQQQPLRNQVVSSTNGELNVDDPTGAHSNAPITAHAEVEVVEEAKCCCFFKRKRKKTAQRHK

AKT1 (human) = AKT1 (human) (UniProt P31749)
TBK1 (human) = TBK1 (human) (UniProt Q9UHD2)
GSG2 (human) = GSG2 (human) (UniProt Q8TF76)
CLK4 (human) = CLK4 (human) (UniProt Q9HAZ1)
GSK3B (human) = GSK3B (human) (UniProt P49841)
CSNK1A1 (human) = CSNK1A1 (human) (UniProt P48729)
CSNK2A1 (human) = CSNK2A1 (human) (UniProt P68400)
STK39 (human) = STK39 (human) (UniProt Q9UEW8)
NTRK1 (human) = NTRK1 (human) (UniProt P04629)
MARK2 (human) = MARK2 (human) (UniProt Q7KZI7)
Sequence of MARK2 (human) (Q7KZI7 whole entry, looked up): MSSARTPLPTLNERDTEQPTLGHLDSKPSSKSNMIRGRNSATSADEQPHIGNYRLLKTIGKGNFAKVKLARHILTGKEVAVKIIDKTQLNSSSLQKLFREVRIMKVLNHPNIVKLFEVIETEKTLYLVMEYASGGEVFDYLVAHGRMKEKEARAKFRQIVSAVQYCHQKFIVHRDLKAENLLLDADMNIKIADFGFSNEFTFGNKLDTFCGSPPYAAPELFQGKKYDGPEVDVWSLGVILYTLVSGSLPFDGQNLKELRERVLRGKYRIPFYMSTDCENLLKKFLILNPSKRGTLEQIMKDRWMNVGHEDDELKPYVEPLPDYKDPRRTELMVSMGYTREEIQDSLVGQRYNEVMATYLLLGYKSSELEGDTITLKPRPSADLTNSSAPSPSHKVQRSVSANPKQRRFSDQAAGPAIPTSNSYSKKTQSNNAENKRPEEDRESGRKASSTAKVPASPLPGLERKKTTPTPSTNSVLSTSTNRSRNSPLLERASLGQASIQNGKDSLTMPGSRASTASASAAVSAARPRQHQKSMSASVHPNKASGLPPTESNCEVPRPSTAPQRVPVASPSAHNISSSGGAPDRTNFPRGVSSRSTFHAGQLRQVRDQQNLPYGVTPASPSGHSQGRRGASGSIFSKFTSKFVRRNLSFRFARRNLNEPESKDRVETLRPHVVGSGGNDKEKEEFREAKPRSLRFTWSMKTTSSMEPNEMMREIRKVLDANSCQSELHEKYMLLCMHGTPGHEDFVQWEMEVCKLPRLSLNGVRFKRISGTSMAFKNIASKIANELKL

CDC42BPB (human) = CDC42BPB (human) (UniProt Q9Y5S2)
LRRK2 (human) = LRRK2 (human) (UniProt Q5S007)
MST4 (human) = MST4 (human) (UniProt Q9P289)
NEK4 (human) = NEK4 (human) (UniProt P51957)
IKBKB (human) = IKBKB (human) (UniProt O14920)
Sequence of IKBKB (human) (O14920 whole entry, looked up): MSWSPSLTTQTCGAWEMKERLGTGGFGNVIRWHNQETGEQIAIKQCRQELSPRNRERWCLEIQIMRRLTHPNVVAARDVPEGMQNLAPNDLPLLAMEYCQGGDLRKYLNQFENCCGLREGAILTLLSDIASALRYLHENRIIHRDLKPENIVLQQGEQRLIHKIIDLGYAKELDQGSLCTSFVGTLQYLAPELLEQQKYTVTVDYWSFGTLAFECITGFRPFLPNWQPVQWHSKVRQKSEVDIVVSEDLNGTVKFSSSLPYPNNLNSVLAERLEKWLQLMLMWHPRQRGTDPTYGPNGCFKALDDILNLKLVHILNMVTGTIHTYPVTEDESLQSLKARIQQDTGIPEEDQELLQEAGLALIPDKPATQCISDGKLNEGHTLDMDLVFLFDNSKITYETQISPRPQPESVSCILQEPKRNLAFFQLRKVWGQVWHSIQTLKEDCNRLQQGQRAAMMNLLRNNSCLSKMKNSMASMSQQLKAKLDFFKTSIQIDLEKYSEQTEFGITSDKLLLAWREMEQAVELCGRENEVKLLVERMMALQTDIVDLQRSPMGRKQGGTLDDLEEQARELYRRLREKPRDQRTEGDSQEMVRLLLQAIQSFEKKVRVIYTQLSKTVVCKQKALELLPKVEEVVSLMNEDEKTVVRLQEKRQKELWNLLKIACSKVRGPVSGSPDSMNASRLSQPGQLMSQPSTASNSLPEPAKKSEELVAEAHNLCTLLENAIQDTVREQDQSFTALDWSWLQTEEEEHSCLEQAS

FYN (human) = FYN (human) (UniProt P06241)
MET (human) = MET (human) (UniProt P08581)
EPHA2 (human) = EPHA2 (human) (UniProt P29317)
BRSK1 (human) = BRSK1 (human) (UniProt Q8TDC3)
PLK1 (human) = PLK1 (human) (UniProt P53350)
MAP4K5 (human) = MAP4K5 (human) (UniProt Q9Y4K4)
PAK6 (human) = PAK6 (human) (UniProt Q9NQU5)

Sequence of MUSK (human) (O15146 whole entry, looked up): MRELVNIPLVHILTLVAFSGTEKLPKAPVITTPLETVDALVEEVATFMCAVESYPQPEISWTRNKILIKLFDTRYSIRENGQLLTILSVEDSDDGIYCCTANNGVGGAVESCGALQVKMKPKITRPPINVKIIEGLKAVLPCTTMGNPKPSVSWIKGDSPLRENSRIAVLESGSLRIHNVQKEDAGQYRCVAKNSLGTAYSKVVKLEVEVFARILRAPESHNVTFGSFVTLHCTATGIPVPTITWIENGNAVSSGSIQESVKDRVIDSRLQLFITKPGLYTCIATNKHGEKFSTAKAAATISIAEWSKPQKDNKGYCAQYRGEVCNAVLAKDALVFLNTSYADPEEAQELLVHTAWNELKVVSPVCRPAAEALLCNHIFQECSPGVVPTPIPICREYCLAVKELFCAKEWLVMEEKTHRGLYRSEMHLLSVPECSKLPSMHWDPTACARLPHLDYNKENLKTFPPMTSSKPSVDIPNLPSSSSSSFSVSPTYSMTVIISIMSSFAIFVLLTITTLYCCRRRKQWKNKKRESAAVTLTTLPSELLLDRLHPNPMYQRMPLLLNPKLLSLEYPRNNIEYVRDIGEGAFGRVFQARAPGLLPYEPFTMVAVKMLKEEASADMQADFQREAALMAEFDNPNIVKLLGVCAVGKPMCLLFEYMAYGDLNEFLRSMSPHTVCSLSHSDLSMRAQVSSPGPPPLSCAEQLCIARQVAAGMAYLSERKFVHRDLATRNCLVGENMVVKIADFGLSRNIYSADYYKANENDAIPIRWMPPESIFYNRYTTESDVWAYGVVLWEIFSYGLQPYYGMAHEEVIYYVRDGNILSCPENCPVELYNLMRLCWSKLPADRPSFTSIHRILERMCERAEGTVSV
Sequence of PRKCI (human) (P41743 whole entry, looked up): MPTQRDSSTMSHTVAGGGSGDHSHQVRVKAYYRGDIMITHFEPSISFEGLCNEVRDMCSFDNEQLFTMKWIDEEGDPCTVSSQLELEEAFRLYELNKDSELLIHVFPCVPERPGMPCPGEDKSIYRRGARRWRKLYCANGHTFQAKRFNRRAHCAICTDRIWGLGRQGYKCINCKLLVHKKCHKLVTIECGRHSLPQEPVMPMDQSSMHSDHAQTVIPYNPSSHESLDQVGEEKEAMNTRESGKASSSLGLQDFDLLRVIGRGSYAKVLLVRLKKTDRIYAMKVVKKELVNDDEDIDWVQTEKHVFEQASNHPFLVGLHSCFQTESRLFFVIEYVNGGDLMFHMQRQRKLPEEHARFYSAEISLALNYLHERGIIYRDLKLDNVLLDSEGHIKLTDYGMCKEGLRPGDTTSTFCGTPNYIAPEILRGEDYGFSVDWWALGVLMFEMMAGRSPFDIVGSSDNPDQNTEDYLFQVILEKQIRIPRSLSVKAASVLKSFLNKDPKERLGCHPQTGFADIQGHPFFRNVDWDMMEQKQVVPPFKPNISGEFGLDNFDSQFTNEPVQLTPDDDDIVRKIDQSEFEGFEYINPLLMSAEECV

`COc1cccc(-c2cc(=O)c3ccccc3o2)c1N` gave a residual activity (WNK2 (human)) of 122%, a residual activity (MATK (human)) of 88.6% and a residual activity (ACVRL1 (human)) of 93.5%. The residual activity (PRKCI (human)) was 97.3%, the residual activity (MUSK (human)) was 94.2% and the residual activity (MERTK (human)) was 98%. It also gave a residual activity (RPS6KB2 (human)) of 84.5%, a residual activity (AURKB (human)) of 102% and a residual activity (PNCK (human)) of 96.8%. The residual activity (EPHA7 (human)) was 98.6%, the residual activity (PAK1 (human)) was 97.5% and the residual activity (TNK2 (human)) was 79.9%. It also gave a residual activity (PAK4 (human)) of 88.1%, a residual activity (CDK2 CCNA2 (human)) of 102% and a residual activity (EPHB2 (human)) of 88%. For the same compound, the residual activity (PRKX (human)) was 101%, the residual activity (CDK9 CCNT1 (human)) was 93.6% and the residual activity (TAOK3 (human)) was 77%. The residual activity (LIMK1 (human)) was 96.1%, the residual activity (CSNK1G1 (human)) was 83.5% and the residual activity (AKT1 (human)) was 93.8%. The residual activity (TBK1 (human)) was 94.3%, the residual activity (GSG2 (human)) was 95.7% and the residual activity (CLK4 (human)) was 86.3%. The residual activity (GSK3B (human)) was 95.7%, the residual activity (CSNK1A1 (human)) was 95.6% and the residual activity (CSNK2A1 (human)) was 94.9%. It also gave a residual activity (STK39 (human)) of 86.8%, a residual activity (NTRK1 (human)) of 99.9% and a residual activity (MARK2 (human)) of 84.9%. The residual activity (CDC42BPB (human)) was 94.8%, the residual activity (LRRK2 (human)) was 101% and the residual activity (MST4 (human)) was 110%. For the same compound, the residual activity (NEK4 (human)) was 93.4%, the residual activity (IKBKB (human)) was 92.5% and the residual activity (FYN (human)) was 97.3%. It also gave a residual activity (MET (human)) of 112%, a residual activity (EPHA2 (human)) of 105% and a residual activity (BRSK1 (human)) of 84.9%. It also gave a residual activity (PLK1 (human)) of 88.2%, a residual activity (MAP4K5 (human)) of 91.1% and a residual activity (PAK6 (human)) of 95.5%.

`O=c1c2ccccc2[nH]c(=S)n1CCN1CCC(=C(c2ccc(F)cc2)c2ccc(F)cc2)CC1` showed a residual activity (WNK2 (human)) of 96.3%, a residual activity (MATK (human)) of 92.9% and a residual activity (ACVRL1 (human)) of 101%. The residual activity (PRKCI (human)) was 96.3%, the residual activity (MUSK (human)) was 93.6% and the residual activity (MERTK (human)) was 97%. It also gave a residual activity (RPS6KB2 (human)) of 102%, a residual activity (AURKB (human)) of 102% and a residual activity (PNCK (human)) of 109%. For the same compound, the residual activity (EPHA7 (human)) was 96.9%, the residual activity (PAK1 (human)) was 94.6% and the residual activity (TNK2 (human)) was 105%. For the same compound, the residual activity (PAK4 (human)) was 101%, the residual activity (CDK2 CCNA2 (human)) was 99.9% and the residual activity (EPHB2 (human)) was 92.1%. The residual activity (PRKX (human)) was 106%, the residual activity (CDK9 CCNT1 (human)) was 102% and the residual activity (TAOK3 (human)) was 92.4%. The residual activity (LIMK1 (human)) was 98.4%, the residual activity (CSNK1G1 (human)) was 92.5% and the residual activity (AKT1 (human)) was 98.3%. It also gave a residual activity (TBK1 (human)) of 104%, a residual activity (GSG2 (human)) of 95.4% and a residual activity (CLK4 (human)) of 103%. It also gave a residual activity (GSK3B (human)) of 112%, a residual activity (CSNK1A1 (human)) of 106% and a residual activity (CSNK2A1 (human)) of 97.9%. The residual activity (STK39 (human)) was 96.8%, the residual activity (NTRK1 (human)) was 97% and the residual activity (MARK2 (human)) was 108%. The residual activity (CDC42BPB (human)) was 106%, the residual activity (LRRK2 (human)) was 93.9% and the residual activity (MST4 (human)) was 91.6%. It also gave a residual activity (NEK4 (human)) of 99.1%, a residual activity (IKBKB (human)) of 99.5% and a residual activity (FYN (human)) of 102%. For the same compound, the residual activity (MET (human)) was 114%, the residual activity (EPHA2 (human)) was 105% and the residual activity (BRSK1 (human)) was 98.3%. For the same compound, the residual activity (PLK1 (human)) was 100%, the residual activity (MAP4K5 (human)) was 98.8% and the residual activity (PAK6 (human)) was 98.4%.
